Results as given in US4658029A, “1-Hpyrazolo[3,4-b]pyridines” (Hoechst-Roussel Pharmaceuticals Inc., priority 1986, dated 1987).

Assays:
[1] = system: 2-phenyl-1,4-benzoquinone-induced writhing; assay: 2-phenyl-1,4-benzoquinone-induced writhing test in mice (analgesic activity, PQW); assay type: in vivo; details: for Analgesic PQW, % decrease (phenylquinone writhing): 20 mg/kg, SC
[2] = system: spontaneous hypertensive rat; assay: Antihypertensive activity in the spontaneous hypertensive rat (SHR), indirect tail cuff method; assay type: in vivo; details: 50 mg/kg, PO, treated orally for three days, drop measured on third day
Description: The 6H-isoxazolo[5,4-d]pyrazolo[…] of formula I of the present invention are useful as antihypertensive agents due to their ability to depress blood pressure in mammals. Antihypertensive activity is measured in the spontaneous hypertensive rat by the indirect tail cuff method described in "Methods in Pharmacology", A. Schwartz, Ed., Vol. I, Appleton-Century Crofts, New York, N.Y., 1971, p. 135. In this procedure a group of five animals are treated orally for three days with the test compound in relation to a control group of the same number. The drop in blood pressure is measured on the third day following administration. The antihypertensive activities of some of the compounds, expressed as a decrease in mean arterial blood pressure (in mmHg), are given in Table I.

For “6-Ethyl-3-tolyl-6H-isoxazolo[5,4-d]pyrazolo[3,4-b]pyridine”, the “Analgesic PQW, % decrease (phenylquinone writhing)” value (“Analgesic PQW, % decrease” below) [1] was 48%.
With `CCn1ncc2c3onc(-c4ccc(Cl)cc4)c3cnc21` [3-(4-Chlorophenyl)-6-ethyl-6H-isoxazolo[5,4-d]pyrazolo[3,4-b]pyridine] the “Antihypertensive SHR (decrease in mean arterial blood pressure)” value [2] was 62 mmHg.
For `CCn1ncc2c3onc(-c4ccccn4)c3cnc21` [6-Ethyl-3-(2-pyridyl)-6H-isoxazolo[5,4-d]pyrazolo[3,4-b]pyridine], the “Analgesic PQW, % decrease” value [1] was 42%.
With `CCn1ncc2c3onc(-c4cccc(F)c4)c3cnc21` [6-Ethyl-3-(3-fluorophenyl)-6H-isoxazolo[5,4-d]pyrazolo[3,4-b]pyridine] the “Analgesic PQW, % decrease” value [1] was 55%.
`CCn1ncc2c3onc(-c4cccc(O)c4)c3cnc21` [6-Ethyl-3-(3-hydroxyphenyl)-6H-isoxazolo[5,4-d]pyrazolo[3,4-b]pyridine] was tested, and the “Analgesic PQW, % decrease” value [1] was 48%.
`CCn1ncc2c3onc(-c4cccc(C)c4)c3cnc21` [6-Ethyl-3-(3-tolyl)-6H-isoxazolo[5,4-d]pyrazolo[3,4-b]pyridine] was tested, and the “Antihypertensive SHR (decrease in mean arterial blood pressure)” value [2] was 33 mmHg.
In the case of `CCn1ncc2c3onc(-c4ccc(F)cc4)c3cnc21` [6-Ethyl-3-(4-fluorophenyl)-6H-isoxazolo[5,4-d]pyrazolo[3,4-b]pyridine], the “Analgesic PQW, % decrease” value [1] was 31%.
In the case of `CCn1ncc2c3onc(-c4ccc(OC)cc4)c3cnc21` [6-Ethyl-3-(4-methoxyphenyl)-6H-isoxazolo[5,4-d]pyrazolo[3,4-b]pyridine], the “Antihypertensive SHR (decrease in mean arterial blood pressure)” value [2] was 31 mmHg.
`CCC(=O)O[C@](Cc1ccccc1)(c1ccccc1)[C@H](C)CN(C)C` [Propoxyphene, reference compound] gave an ED50 ([1]; Mus musculus, sc, prior art compound, read-out: ED50 (phenylquinone writhing)) of 3.9 mg/kg.
For `C[C@](N)(Cc1ccc(O)c(O)c1)C(=O)O` [alpha-Methyldopa, reference compound], the “Antihypertensive SHR (decrease in mean arterial blood pressure)” value [2] was 40 mmHg.
